Measured values: ChEMBL document CHEMBL1201862, “PubChem BioAssay data set” (2004)
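Results reflect a 48-hour exposure of cells in 96-well plates to compound at five concentrations. At the GI50, growth is halved.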 Activity calls are given as the source filed them. Cut-off read from the data, not from the text of the source: active = GI50 up to about 1.1 µM and inactive = higher.

Experiments:
Experiment in all cases: inhibition of tumour cell growth, NCI panel, 48 h
IGROV-1 = tested on: IGROV-1
SF-268 = tested on: SF-268
CCRF-CEM = tested on: CCRF-CEM
OVCAR-5 = tested on: OVCAR-5
SW-620 = tested on: SW-620
Malme-3M = tested on: Malme-3M
SK-MEL-28 = tested on: SK-MEL-28
SK-MEL-5 = tested on: SK-MEL-5
RXF 393 = tested on: RXF 393
LOX IMVI = tested on: LOX IMVI
SF-295 = tested on: SF-295
NCI-H522 = tested on: NCI-H522
RPMI-8226 = tested on: RPMI-8226
HT-29 = tested on: HT-29
A498 = tested on: A498
UACC-62 = tested on: UACC-62
MDA-N = tested on: MDA-N
Hs-578T = tested on: Hs-578T
BT-549 = tested on: BT-549

Measured: GI50

COCOCCC#CCO
inactive: IGROV-1 > 100 µM | SF-268 > 100 µM | CCRF-CEM > 100 µM | OVCAR-5 > 100 µM | SW-620 > 100 µM | Malme-3M > 100 µM | SK-MEL-28 > 100 µM | SK-MEL-5 72.8 µM | RXF 393 > 100 µM | LOX IMVI > 100 µM | SF-295 > 100 µM | NCI-H522 68.4 µM | RPMI-8226 > 100 µM | HT-29 > 100 µM | A498 > 100 µM | UACC-62 > 100 µM

COc1cc2c(NCCN(C)C)nc3c4cc5c(cc4ccc3c2cc1OC)OCO5
inactive: MDA-N 3.57 µM | IGROV-1 2.8 µM | SF-268 4.78 µM | CCRF-CEM 1.32 µM | OVCAR-5 3.42 µM | SW-620 3.36 µM | Malme-3M 4.14 µM | SK-MEL-28 4.93 µM | SK-MEL-5 2.84 µM | RXF 393 3.16 µM | SF-295 2.58 µM | NCI-H522 3.9 µM | RPMI-8226 2.56 µM | Hs-578T 5.21 µM | HT-29 3.37 µM | A498 2.76 µM | UACC-62 4.49 µM

Cc1c2c(C#N)nccc2c(C)c2c1c1ccccc1n2Cc1ccccc1
inactive: MDA-N > 100 µM | IGROV-1 > 100 µM | SF-268 > 100 µM | CCRF-CEM > 100 µM | OVCAR-5 > 100 µM | SW-620 > 100 µM | Malme-3M > 100 µM | SK-MEL-28 > 100 µM | SK-MEL-5 > 100 µM | RXF 393 > 100 µM | LOX IMVI > 100 µM | SF-295 > 100 µM | RPMI-8226 > 100 µM | Hs-578T 88.5 µM | HT-29 > 100 µM | UACC-62 > 100 µM

CC(C)CC1c2[nH]c3ccccc3c2C[C@H]2C(=O)NC(Cc3c[nH]c4ccccc34)C(=O)N12 (stereo partly drawn)
inactive: IGROV-1 15.5 µM | SF-268 18 µM | BT-549 16.9 µM | OVCAR-5 24.7 µM | SW-620 18.1 µM | Malme-3M 14.6 µM | SK-MEL-28 17.3 µM | SK-MEL-5 12.7 µM | RXF 393 7.87 µM | LOX IMVI 14.2 µM | SF-295 20.4 µM | NCI-H522 11.5 µM | RPMI-8226 13.9 µM | Hs-578T 7.11 µM | HT-29 14.9 µM | A498 16.8 µM | UACC-62 16 µM

Clc1ccc(CCN2CCOCC2)c(Cl)c1
inactive: IGROV-1 > 100 µM | SF-268 > 100 µM | CCRF-CEM > 100 µM | OVCAR-5 > 100 µM | Malme-3M > 100 µM | SK-MEL-28 > 100 µM | SK-MEL-5 > 100 µM | RXF 393 12.5 µM | SF-295 > 100 µM | NCI-H522 > 100 µM | RPMI-8226 > 100 µM | HT-29 > 100 µM | A498 > 100 µM | UACC-62 92.5 µM

COC(=O)C1=C(C)NC(=O)N2[C@@H](CCOCc3ccccc3)CC[C@@H]12
inactive: MDA-N > 50 µM | IGROV-1 > 50 µM | SF-268 > 50 µM | CCRF-CEM > 50 µM | OVCAR-5 > 50 µM | SW-620 > 50 µM | Malme-3M > 50 µM | SK-MEL-28 > 50 µM | SK-MEL-5 > 50 µM | RXF 393 13.1 µM | LOX IMVI > 50 µM | SF-295 > 50 µM | NCI-H522 > 50 µM | RPMI-8226 > 50 µM | Hs-578T > 50 µM | HT-29 > 50 µM | A498 > 50 µM | UACC-62 > 50 µM

CCOc1ccc(NC(=O)C2=C(C)NC(C)=C(C(=O)Nc3ccc(OCC)cc3)C2c2ccc(O)c(OC)c2)cc1
inactive: IGROV-1 > 100 µM | SF-268 > 100 µM | CCRF-CEM 46.9 µM | OVCAR-5 > 100 µM | SW-620 > 100 µM | Malme-3M 64.1 µM | SK-MEL-28 53.2 µM | SK-MEL-5 46 µM | RXF 393 28.9 µM | LOX IMVI > 100 µM | SF-295 54.7 µM | NCI-H522 56.6 µM | RPMI-8226 28.6 µM | HT-29 > 100 µM | A498 19.3 µM

Cc1ccc(NC(=O)CC/C(CC(=O)C(C)(C)C)=N/NC(=O)C[N+](C)(C)C)cc1C
inactive: IGROV-1 > 100 µM | SF-268 > 100 µM | CCRF-CEM > 100 µM | OVCAR-5 > 100 µM | SW-620 > 100 µM | Malme-3M > 100 µM | SK-MEL-28 > 100 µM | SK-MEL-5 > 100 µM | RXF 393 > 100 µM | LOX IMVI > 100 µM | SF-295 > 100 µM | HT-29 > 100 µM | UACC-62 > 100 µM

O=c1c2cc([N+](=O)[O-])ccc2n2n1CCCC2
inactive: MDA-N > 100 µM | IGROV-1 > 100 µM | SF-268 > 100 µM | CCRF-CEM > 100 µM | OVCAR-5 > 100 µM | SW-620 > 100 µM | Malme-3M > 100 µM | SK-MEL-28 > 100 µM | SK-MEL-5 > 100 µM | RXF 393 > 100 µM | LOX IMVI > 100 µM | SF-295 > 100 µM | NCI-H522 > 100 µM | RPMI-8226 > 100 µM | Hs-578T > 100 µM | HT-29 > 100 µM | A498 > 100 µM | UACC-62 > 100 µM

Cc1[nH]c2ncn3[nH]c(=S)nc3c2c1Cc1ccccc1
inactive: IGROV-1 48.1 µM | SF-268 > 100 µM | CCRF-CEM 76.4 µM | BT-549 > 100 µM | OVCAR-5 > 100 µM | SW-620 > 100 µM | Malme-3M > 100 µM | SK-MEL-28 > 100 µM | SK-MEL-5 > 100 µM | RXF 393 26.5 µM | SF-295 > 100 µM | NCI-H522 72.4 µM | Hs-578T 62.7 µM | HT-29 > 100 µM | A498 > 100 µM | UACC-62 > 100 µM

CN(C)C1(C(=O)O)CC1
inactive: MDA-N > 100 µM | IGROV-1 > 100 µM | SF-268 > 100 µM | CCRF-CEM > 100 µM | OVCAR-5 > 100 µM | SW-620 > 100 µM | Malme-3M > 100 µM | SK-MEL-28 > 100 µM | SK-MEL-5 > 100 µM | RXF 393 > 100 µM | LOX IMVI > 100 µM | SF-295 > 100 µM | NCI-H522 > 100 µM | RPMI-8226 > 100 µM | Hs-578T > 100 µM | HT-29 > 100 µM | A498 > 100 µM

CC1=C(C(=O)CC(=O)C(=O)Nc2ccccc2)Sc2ccccc2N1
inactive: IGROV-1 > 100 µM | SF-268 > 100 µM | CCRF-CEM > 100 µM | OVCAR-5 > 100 µM | SW-620 > 100 µM | Malme-3M > 100 µM | SK-MEL-28 > 100 µM | SK-MEL-5 > 100 µM | RXF 393 > 100 µM | LOX IMVI > 100 µM | SF-295 > 100 µM | NCI-H522 > 100 µM | RPMI-8226 > 100 µM | HT-29 > 100 µM | A498 > 100 µM | UACC-62 > 100 µM

COC(=O)C12C(=O)O[C@H](C)C1(O)C(C)C(=O)N2C (stereo partly drawn)
inactive: IGROV-1 > 100 µM | OVCAR-5 > 100 µM | Malme-3M > 100 µM | SK-MEL-28 > 100 µM | SK-MEL-5 > 100 µM | RXF 393 > 100 µM | SF-295 > 100 µM | RPMI-8226 > 100 µM | HT-29 > 100 µM | UACC-62 > 100 µM
